In patent US20100137313A1 (ASTRAZENECA AB, priority 2008, published 2010):

Target: S. pneumoniae Topoisomerase IV ATPase (ParE) (Streptococcus pneumoniae serotype 4, UniProt Q59961)
Assay: S. pneumoniae Topoisomerase IV ATPase inhibition
Type: biochemical
Settings: values marked * are an average of two or more data points, read-out: % Inh (13 μM) of S. pneumoniae Topoisomerase IV ATPase
Summary of the method: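 Phosphate release by ParE ATPase from S. pneumoniae read colorimetrically (malachite green, 650 nm), enzyme 1.25 nM, ATP 160 μM, salmon sperm DNA present, buffer 20 mM Tris pH 8.0 with 8 mM MgCl2. IC50 over 10 compound concentrations, EDTA (20 μM) and DMSO controls defining inhibition range.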

S. pneumoniae Topoisomerase IV ATPase (ParE), sequence (Q59961 whole entry): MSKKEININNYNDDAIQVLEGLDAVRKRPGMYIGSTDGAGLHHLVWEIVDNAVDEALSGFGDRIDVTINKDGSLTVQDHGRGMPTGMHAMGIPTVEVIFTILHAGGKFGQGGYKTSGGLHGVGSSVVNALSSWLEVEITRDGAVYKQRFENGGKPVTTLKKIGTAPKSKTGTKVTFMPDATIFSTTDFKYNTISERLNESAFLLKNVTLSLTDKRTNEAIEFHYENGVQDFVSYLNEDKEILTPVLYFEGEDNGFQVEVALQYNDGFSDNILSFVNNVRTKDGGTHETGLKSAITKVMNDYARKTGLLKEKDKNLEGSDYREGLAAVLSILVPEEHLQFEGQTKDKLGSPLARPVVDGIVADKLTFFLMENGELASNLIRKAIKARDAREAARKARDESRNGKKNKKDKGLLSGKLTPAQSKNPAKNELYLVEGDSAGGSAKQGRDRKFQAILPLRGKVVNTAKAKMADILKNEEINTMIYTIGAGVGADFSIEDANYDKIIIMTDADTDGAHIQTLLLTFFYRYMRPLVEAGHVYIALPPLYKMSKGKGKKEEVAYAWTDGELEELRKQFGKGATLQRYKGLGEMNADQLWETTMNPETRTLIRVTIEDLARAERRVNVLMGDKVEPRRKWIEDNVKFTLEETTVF

Row | Structure (SMILES) | inhibition at 13 µM
1 | COc1cc(Nc2ncc(-c3cnc(OCCCS(C)(=O)=O)c(C(=O)O)c3)c(-n3nc(C(F)(F)F)cc3C)n2)cc(OC)c1 [Example 967, 5-(2-(3,5-dimethoxyphenylamino)-4-(5-methyl-3-(trifluoromethyl)-1H-pyrazol-1-yl)pyrimidin-5-yl)-2-(3-(methylsulfonyl)propoxy)nicotinic acid] | 100%
2 | COc1cc(Nc2ncc(-c3cnc(OCCCS(C)(=O)=O)c(C(=O)O)c3)c(-n3ccc(C(F)(F)F)n3)n2)cc(OC)c1 [Example 968, 5-(2-(3,5-dimethoxyphenylamino)-4-(3-(trifluoromethyl)-1H-pyrazol-1-yl)pyrimidin-5-yl)-2-(3-(mehtylsulfonyl)propoxy)nicotinic acid] | 94%
3 | COc1cc(Nc2ncc(-c3cnc(OCCNC(C)=O)c(C(=O)NS(C)(=O)=O)c3)c(-n3nc(C(F)(F)F)cc3C)n2)cc(OC)c1 [Example 969, 2-(2-acetamidoethoxy)-5-(2-(3,5-dimethoxyphenylamino)-4-(5-methyl-3-(trifluoromethyl)-1H-pyrazol-1-yl)pyrimidin-5-yl)-N-(methylsulfonyl)nicotinamide] | 100%
4 | COc1cc(Nc2ncc(-c3cnc(OCCCS(C)(=O)=O)c(C(=O)NS(C)(=O)=O)c3)c(-n3nc(C(F)(F)F)cc3C)n2)cc(OC)c1 [Example 970, 5-(2-(3,5-dimethoxyphenylamino)-4-(5-methyl-3-(trifluoromethyl)-1H-pyrazol-1-yl)pyrimidin-5-yl)-N-(methylsulfonyl)-2-(3-(methylsulfonyl)propoxy)nicotinamide] | 100%
5 | COc1cc(Nc2ncc(-c3cnc(OCCCS(C)(=O)=O)c(C(=O)NS(C)(=O)=O)c3)c(-n3ccc(C(F)(F)F)n3)n2)cc(OC)c1 [Example 971, (2-(3,5-dimethoxyphenylamino)-4-(3-(trifluoromethyl)-1H-pyrazol-1-yl)pyrimidin-5-yl)-N-(methylsulfonyl)-2-(3-(methylsulfonyl)propoxy)nicotinamide] | 100%
6 | COc1cc(Nc2ncc(-c3cnc(OCCCS(C)(=O)=O)c(C(=O)NS(=O)(=O)C(F)(F)F)c3)c(-n3ccc(C(F)(F)F)n3)n2)cc(OC)c1 [Example 972, 5-(2-(3,5-dimethoxyphenylamino)-4-(3-(trifluoromethyl)-1H-pyrazol-1-yl)pyrimidin-5-yl)-2-(3-(methylsulfonyl)propoxy)-N-(trifluoromethylsulfonyl)nicotinamide] | 100%
7 | COc1cc(Nc2ncc(-c3cnc(OC)c(-c4noc(=S)[nH]4)c3)c(-n3nc(C(F)(F)F)cc3C)n2)cc(OC)c1 [Example 974, 3-(5-(2-(3,5-dimethoxyphenylamino)-4-(5-methyl-3-(trifluoromethyl)-1H-pyrazol-1-yl)pyrimidin-5-yl)-2-methoxypyridin-3-yl)-1,2,4-oxadiazol-5(4H)-thione] | 89%
8 | COc1cc(Nc2ncc(-c3cnc(OC)c(-c4noc(=O)[nH]4)c3)c(-n3nc(C(F)(F)F)cc3C)n2)cc(OC)c1 [Example 975, 3-(5-(2-(3,5-dimethoxyphenylamino)-4-(5-methyl-3-(trifluoromethyl)-1H-pyrazol-1-yl)pyrimidin-5-yl)-2-methoxypyridin-3-yl)-1,2,4-oxadiazol-5(4H)-one] | 100%
9 | CCOC(=O)/C=C/c1cccc(-c2cnc(Nc3ccc(F)c(Cl)c3)nc2N2CCOC(CO)C2)c1 (stereo not drawn) [Example 977, (E)-ethyl 3-(3-(2-(3-chloro-4-fluorophenylamino)-4-(2-(hydroxymethyl)morpholino)pyrimidin-5-yl)phenyl)acrylate] | 74%
10 | CCOC(=O)c1cncc(-c2cnc(Nc3ccc(F)c(Cl)c3)nc2N2CCOC(CO)C2)c1 (stereo not drawn) [Example 978, Ethyl 5-(2-(3-chloro-4-fluorophenylamino)-4-(2-(hydroxymethyl)morpholino)pyrimidin-5-yl)nicotinate] | 82%
11 | CC(=O)N1CCN(c2nc(Nc3ccc(F)c(Cl)c3)ncc2-c2ccc(C(=O)O)s2)CC1 [Example 982, 5-(4-(4-Acetylpiperazin-1-yl)-2-(3-chloro-4-fluorophenylamino)pyrimidin-5-yl)thiophene-2-carboxylic acid] | 100%
12 | COCCCNc1nc(Nc2ccc(F)c(Cl)c2)ncc1-c1cncc(S(C)(=O)=O)c1 [Example 987, N2-(3-chloro-4-fluorophenyl)-N4-(3-methoxypropyl)-5-(5-(methylsulfonyl)pyridin-3-yl)pyrimidine-2,4-diamine] | 30%
13 | CS(=O)(=O)c1cncc(-c2cnc(Nc3ccc(F)c(Cl)c3)nc2N2CCOCC2)c1 [Example 988, N-(3-chloro-4-fluorophenyl)-5-(5-(methylsulfonyl)pyridin-3-yl)-4-morpholinopyrimidin-22-amine] | 69%
14 | Cc1cc(C(F)(F)F)nn1-c1nc(Nc2ccc(F)c(Cl)c2)ncc1-c1cncc(S(C)(=O)=O)c1 [Example 989, N-(3-chloro-4-fluorophenyl)-4-(5-methyl-3-(trifluoromethyl)-1H-pyrazol-1-yl)-5-(5-(methylsulfonyl)pyridin-3-yl)pyrimidin-2-amine] | 100%
15 | CS(=O)(=O)c1cncc(-c2cnc(Nc3ccc(F)c(Cl)c3)nc2-n2ccc(C(F)(F)F)n2)c1 [Example 990, N-(3-chloro-4-fluorophenyl)-5-(5-(methylsulfonyl)pyridin-3-yl)-4-(3-(trifluoromethyl)-1H-pyrazol-1-yl)pyrimidin-2-amine] | 100%
16 | CS(=O)(=O)CC(=O)c1cncc(-c2cnc(Nc3ccc(F)c(Cl)c3)nc2-n2ccc(C(F)(F)F)n2)c1 [Example 993, 1-(5-(2-(3-chloro-4-fluorophenylamino)-4-(3-(trifluoromethyl)-1H-pyrazol-1-yl)pyrimidin-5-yl)pyridin-3-yl)-2-(methylsulfonyl)ethanone] | 100%
17 | CCNS(=O)(=O)c1cccc(-c2cnc(Nc3ccc(F)c(Cl)c3)nc2-n2ccc(C(F)(F)F)n2)c1 [Example 995, 3-(2-(3-Chloro-4-fluorophenylamino)-4-(3-(trifluoromethyl)-1H-pyrazol-1-yl)pyrimidin-5-yl)-N-ethylbenzenesulfonamide] | 89%
18 | O=S(=O)(NCCO)c1cccc(-c2cnc(Nc3ccc(F)c(Cl)c3)nc2-n2ccc(C(F)(F)F)n2)c1 [Example 997, 3-(2-(3-Chloro-4-fluorophenylamino)-4-(3-(trifluoromethyl)-1H-pyrazol-1-yl)pyrimidin-5-yl)-N-(2-hydroxyethyl)benzenesulfonamide] | 100%
19 | CCNC(=O)NS(=O)(=O)c1cccc(-c2cnc(Nc3ccc(F)c(Cl)c3)nc2-n2ccc(C(F)(F)F)n2)c1 [Example 998, 3-(2-(3-Chloro-4-fluorophenylamino)-4-(3-(trifluoromethyl)-1H-pyrazol-1-yl)pyrimidin-5-yl)-N-(ethylcarbamoyl)benzenesulfonamide] | 100%
20 | CCNS(=O)(=O)c1cncc(-c2cnc(Nc3ccc(F)c(Cl)c3)nc2-n2ccc(C(F)(F)F)n2)c1 [Example 1000, 5-(2-(3-Chloro-4-fluorophenylamino)-4-(3-(trifluoromethyl)-1H-pyrazol-1-yl)pyrimidin-5-yl)-N-ethylpyridine-3-sulfonamide] | 64%
21 | CS(=O)(=O)NC(=O)c1cccc(-c2cnc(Nc3ccc(F)c(Cl)c3)nc2-n2ccc(C(F)(F)F)n2)c1 [Example 1002, 3-(2-(3-Chloro-4-fluorophenylamino)-4-(3-(trifluoromethyl)-1H-pyrazol-1-yl)pyrimidin-5-yl)-N-(methylsulfonyl)benzamide] | 100%
22 | COC(=O)c1cc(-c2cnc(Nc3ccc(F)c(Cl)c3)nc2-n2nc(C(F)(F)F)cc2C)cnc1OC [Example 1008, Methyl 5-(2-(3-chloro-4-fluorophenylamino)-4-(5-methyl-3-(trifluoromethyl)-1H-pyrazol-1-yl)pyrimidin-5-yl)-2-methoxynicotinate] | 83%
23 | O=C1NC(=O)c2cc(-c3cnc(Nc4ccc(F)c(Cl)c4)nc3-n3ccc(C(F)(F)F)n3)ccc21 [Example 1009, 5-(2-(3-Chloro-4-fluorophenylamino)-4-(3-(trifluoromethyl)-1H-pyrazol-1-yl)pyrimidin-5-yl)isoindole-1,3-dione] | 92%
24 | COC(=O)c1cc(-c2cnc(Nc3ccc(F)c(Cl)c3)nc2-n2ccc(C(F)(F)F)n2)cnc1OC [Example 1010, Methyl 5-(2-(3-chloro-4-fluorophenylamino)-4-(3-(trifluoromethyl)-1H-pyrazol-1-yl)pyrimidin-5-yl)-2-methoxynicotinate] | 81%
25 | CCS(=O)(=O)NC(=O)c1cc(-c2cnc(Nc3ccc(F)c(Cl)c3)nc2-n2ccc(C(F)(F)F)n2)cnc1OC [Example 1016, 5-(2-(3-Chloro-4-fluorophenylamino)-4-(3-(trifluoromethyl)-1H-pyrazol-1-yl)pyrimidin-5-yl)-N-(ethylsulfonyl)-2-methoxynicotinamide] | 94%
26 | CCS(=O)(=O)NC(=O)c1cc(-c2cnc(Nc3ccc(F)c(Cl)c3)nc2-n2nc(C(F)(F)F)cc2C)cnc1OC [Example 1017, 5-(2-(3-Chloro-4-fluorophenylamino)-4-(5-methyl-3-(trifluoromethyl)-1H-pyrazol-1-yl)pyrimidin-5-yl)-N-(ethylsulfonyl)-2-methoxynicotinamide] | 90%
27 | COc1cc(Nc2ncc(-c3cc(C(=O)NS(C)(=O)=O)c(=O)n(C)c3)c(-n3ccc(C(F)(F)F)n3)n2)cc(OC)c1 [Example 1019, 5-(2-(3,5-Dimethoxyphenylamino)-4-(3-(trifluoromethyl)-1H-pyrazol-1-yl)pyrimidin-5-yl)-1-methyl-N-(methylsulfonyl)-2-oxo-1,2-dihydropyridine-3-carboxamide] | 100%
